Test results published in patent publication US20100130444A1, “COMPLEXES OF PROSTAGLANDIN DERIVATIVES AND MONOSUBSTITUTED, CHARGED BETA-CYCLODEXTRINS” (priority 2007, published 2010).
In brackets after ≈: the same amount, converted by molar mass. Each block holds one compound with its values, some of them ahead of it.

Assays:
Format in all cases: physicochemical
[1] = Solubilization of latanoprost by a library of cyclodextrin derivatives (Example 1); conditions: ultra-pure water, room temperature
Procedure: A library of unsubstituted and monosubstituted cyclodextrins was screened to identify those cyclodextrin derivatives that have the highest capacity for solubilization of latanoprost. Complexation was carried out in ultra-pure water at a molar ratio of cyclodextrin derivative to latanoprost of 5:1, corresponding to concentrations of 115.58 mM and 23.12 mM for cyclodextrin derivative and latanoprost, respectively. Because of the known sensitivity of latanoprost to light, high temperature and oxidation, experiments were conducted in the dark and under a nitrogen atmosphere at room temperature. […] Non-covalent complexes formed contained the cyclodextrin derivative and latanoprost at a molar ratio of 5:1.

[2] = Solubility of prostaglandin derivatives in 50 mM cyclodextrin derivative or water (Example 2)
Excerpt: Solubility of Latanoprost, Bimatoprost And Travoprost in 50 Mm Mono-6-desoxy-6-diaminopropyl-β-cyclodextrin, Mono-6-desoxy-6-aminopropanol-β-cyclodextrin or Water

[3] = Time to reach maximal solubility of latanoprost in cyclodextrin solution (Example 3); conditions: 115 mM mono-6-desoxy-6-diaminopropyl-β-cyclodextrin, room temperature, dark, stirred
Procedure: The minimal time period required for reaching maximal solubility of the guest molecule, i.e., latanoprost, in a solution containing 115 mM mono-6-desoxy-6-diaminopropyl-β-cyclodextrin was determined. Subsequent to addition of latanoprost, the resulting suspension was ultrasonicated for 5 min and then stirred magnetically at room temperature and in the dark for a period of 48 hours. Aliquots were removed at 0, 1, 3, 6, 12, 24 and 48 hours. Each aliquot was filtered through a 0.45 um PVDF (Millipore/Whatman) membrane, and the filtrate was diluted for quantitative analysis of latanoprost by HPLC. […] Subsequent experiments were conducted after 24 hours of equilibration.

[4] = 30-day stability of latanoprost complexed with mono-6-desoxy-6-aminopropanol-β-cyclodextrin, quantitative HPLC (Example 6, Table 5); conditions: for Degradation products of latanoprost at 30 days (% of sum of drug and deg. prod.): uncomplexed aqueous solution
Procedure: Analogous experiments were carried out to estimate the stability of latanoprost-mono-6-desoxy-6-aminopropanol-β-cyclodextrin complex.

[5] = 30-day stability of latanoprost complexed with mono-6-desoxy-6-diaminopropyl-β-cyclodextrin, HPLC-ELSD (Example 6, Table 4); conditions: for Relative area of Latanoprost (%) after 30 days: ELSD
Procedure: Latanoprost-mono-6-desoxy-6-diaminopropyl-β-cyclodextrin complex was prepared essentially as described under the previous example. Complex was dissolved in water to yield solutions (pH 6.7) containing 15 mg/ml and 7.5 mg/ml of latanoprost, respectively, or in a standard, isotonic phosphate buffer (pH 6.7) at 50 μg/ml. A control solution of 50 μg/ml latanoprost in phosphate buffer was also prepared. One-milliliter amounts of these solutions were transferred to pre-scored hermetically thermo-sealed ampoules, and the sealed ampoules were incubated at room temperature, at 37° C. or at 60° C., in the presence or absence of natural light, for a total of 30 days. Aliquots were removed periodically and were analyzed by HPLC using either a UV diode array detector (at 210 nm) or an evaporative light scattering detector (ELSD). […] Such instability had been observed previously. Morgan (2001) J. Glaucoma 10, 401-405; Yusuke Sakai (2005) Int. J. Pharmaceutics 305, 176-179. International patent publication WO 2004/024164.

[6] = dark, nitrogen, cyclodextrin derivative 115.58 mM : latanoprost 23.12 mM (5:1), 'No addition' = latanoprost alone (Exp. S0)
[7] = 50 mM mono-6-desoxy-6-aminopropanol-β-cyclodextrin solution, aqueous with cosolvent or surfactant or cyclodextrin, read-out: Solubility In 50 mM Mono-6-desoxy-6-aminopropanol-β-cyclodextrin
[8] = 50 mM mono-6-desoxy-6-diaminopropyl-β-cyclodextrin solution, aqueous with cosolvent or surfactant or cyclodextrin, read-out: Solubility In 50 mM Mono-6-desoxy-6-diaminopropyl-β-cyclodextrin
[9] = water, read-out: Solubility In Water

Compound: 6^1-(3-amino-propylamino)-6^1-deoxycyclomaltoheptaose
Mass Ratio Cyclodextrin:Latanoprost in Complex [1]: 14 | Molar Ratio Cyclodextrin:Latanoprost in Complex [1]: 5 | Maximal Solubility of Latanoprost [1, 6]: 9570 µg/mL

Compound: 6^1-(3-hydroxy-propylamino)-6^1-deoxycyclomaltoheptaose
Mass Ratio Cyclodextrin:Latanoprost in Complex [1]: 14 | Molar Ratio Cyclodextrin:Latanoprost in Complex [1]: 5 | Maximal Solubility of Latanoprost [1, 6]: 10200 µg/mL

Compound: 6^1-(methylthioureido-6^1-deoxycyclomaltoheptaose
Mass Ratio Cyclodextrin:Latanoprost in Complex [1]: 106 | Molar Ratio Cyclodextrin:Latanoprost in Complex [1]: 38 | Maximal Solubility of Latanoprost [1, 6]: 1300 µg/mL

The next lines start with results.

Mass Ratio Cyclodextrin:Latanoprost in Complex [1]: 65 | Molar Ratio Cyclodextrin:Latanoprost in Complex [1]: 25 | Maximal Solubility of Latanoprost [1, 6]: 2000 µg/mL
Compound: 3^1,6^1-anhydrocyclomaltoheptaose [Monoanhydro-β-cyclodextrin]

solubility [2, 7]: 10770 ± 50 µg/mL (≈ 25.9 mM) | solubility [2, 8]: 10700 ± 670 µg/mL (≈ 25.7 mM) | solubility [2, 9]: 3020 µg/mL (≈ 7.26 mM)
Compound: CCNC(=O)CCC/C=C\C[C@@H]1[C@@H](/C=C/[C@@H](O)CCc2ccccc2)[C@H](O)C[C@@H]1O [Bimatoprost, 17-phenyl-18,19,20-trinor-PGF2α-ethylamide]

solubility ([1]; dark, nitrogen, cyclodextrin derivative 115.58 mM : latanoprost 23.12 mM (5:1), 'No addition' = latanoprost alone (Exp. S0), read-out: Maximal Solubility of Latanoprost): 45 µg/mL (≈ 0.104 mM) | time at which solubility equilibrium was reached [3]: about 24 hours | degradation at 25° C. (in words) ([4]; 25° C., 30 days): abundant degradation | Degradation products of latanoprost at 30 days (% of sum of drug and deg. prod.) ([4]; 25 °C, Dark): 93.4% | Degradation products of latanoprost at 30 days (% of sum of drug and deg. prod.) ([4]; 25 °C, Light): 77.9% | Degradation products of latanoprost at 30 days (% of sum of drug and deg. prod.) ([4]; 37 °C, Dark): 0% | Degradation products of latanoprost at 30 days (% of sum of drug and deg. prod.) ([4]; 37 °C, Light): 0% | Degradation products of latanoprost at 30 days (% of sum of drug and deg. prod.) ([4]; 60 °C, Dark): 0% | Degradation products of latanoprost at 30 days (% of sum of drug and deg. prod.) ([4]; 60 °C, Light): 0% | latanoprost in aqueous solution at 30 days ([4]; uncomplexed, 25 °C, Dark): 0.002 +/− 0.001 g/lt | latanoprost in aqueous solution at 30 days ([4]; uncomplexed, 25 °C, Light): 0.006 +/− 0.004 g/lt | latanoprost in aqueous solution at 30 days ([4]; uncomplexed, 37 °C, Dark): 0.051 +/− 0.001 g/lt | latanoprost in aqueous solution at 30 days ([4]; uncomplexed, 37 °C, Light): 0.061 +/− 0.003 g/lt | latanoprost in aqueous solution at 30 days ([4]; uncomplexed, 60 °C, Dark): 0.058 +/− 0.002 g/lt | latanoprost in aqueous solution at 30 days ([4]; uncomplexed, 60 °C, Light): 0.043 +/− 0.007 g/lt | latanoprost in aqueous solution at day 0 ([4]; uncomplexed, phosphate-citrate buffer pH 5.0): 0.063 +/− 0.003 g/lt | Relative area of Latanoprost (%) after 30 days ([5]; 25 °C, Dark): 85.9% | Relative area of Latanoprost (%) after 30 days ([5]; 25 °C, Light, intact latanoprost as % of sum of latanoprost and degradation product): 76.9% | Relative area of Latanoprost (%) after 30 days ([5]; 37 °C, Dark): 100% | Relative area of Latanoprost (%) after 30 days ([5]; 37 °C, Light): 99.8% | Relative area of Latanoprost (%) after 30 days ([5]; 60 °C, Dark): 98.5% | Relative area of Latanoprost (%) after 30 days ([5]; 60 °C, Light): 94.7% | solubility [2, 7]: 5720 ± 80 µg/mL (≈ 13.2 mM) | solubility [2, 8]: 5900 ± 60 µg/mL (≈ 13.6 mM) | solubility [2, 9]: 89 µg/mL (≈ 0.206 mM)
Compound: CC(C)OC(=O)CCC/C=C\C[C@@H]1C(CC[C@@H](O)CCc2ccccc2)[C@H](O)C[C@@H]1O (stereo partly drawn) [Latanoprost, 13,14-dihydro-17-phenyl-18,19,20-trinor-PGF2α-isopropylester]
stability over 30 days (in words) ([5]; room temperature, 37° C. or 60° C., light or dark, 30 days): exhibited instability, in particular at 25 °C

solubility [2, 7]: 4950 ± 20 µg/mL (≈ 9.89 mM) | solubility [2, 8]: 4940 ± 130 µg/mL (≈ 9.87 mM) | solubility [2, 9]: 32 µg/mL (≈ 0.0639 mM)
Compound: CC(C)OC(=O)CCC/C=C\C[C@@H]1[C@@H](/C=C/[C@@H](O)COc2cccc(C(F)(F)F)c2)[C@H](O)C[C@@H]1O [Travoprost, 16-(3-trifluoromethylphenoxy)-17,18,19,20-tetranor-PGF2α-isopropylester]

Mass Ratio Cyclodextrin:Latanoprost in Complex [1]: 59 | Maximal Solubility of Latanoprost [1, 6]: 255 µg/mL
Compound: OC[C@H]1O[C@@H]2O[C@H]3[C@H](O)[C@@H](O)[C@@H](O[C@H]4[C@H](O)[C@@H](O)[C@@H](O[C@H]5[C@H](O)[C@@H](O)[C@@H](O[C@H]6[C@H](O)[C@@H](O)[C@@H](O[C@H]7[C@H](O)[C@@H](O)[C@@H](O[C@H]8[C@H](O)[C@@H](O)[C@@H](O[C@H]1[C@H](O)[C@H]2O)O[C@@H]8CO)O[C@@H]7CO)O[C@@H]6CO)O[C@@H]5CO)O[C@@H]4CO)O[C@@H]3CO [β-Cyclodextrin, β-cyclomaltoheptaose]
